Results as given in the NIST ThermoML archive (doi:10.1021/acs.jced.7b00106).

Conditions: Hot wire method

FC(F)(F)/C=C/Cl [(E)-1-chloro-3,3,3-trifluoroprop-1-ene]
Conditions	thermal conductivity [W/m/K]
402.34 K, 675 kPa, Fluid (supercritical or subcritical phases)	0.01919
402.35 K, 18638 kPa, Liquid	0.06815
402.35 K, 18644 kPa, Liquid	0.06814
402.36 K, 4694 kPa, Liquid	0.05768
402.36 K, 4699 kPa, Liquid	0.05769
402.37 K, 9102 kPa, Liquid	0.06154
402.37 K, 9105 kPa, Liquid	0.06157
402.37 K, 33596 kPa, Liquid	0.07616
402.38 K, 1202 kPa, Fluid (supercritical or subcritical phases)	0.01949
402.38 K, 1203 kPa, Fluid (supercritical or subcritical phases)	0.0195
402.38 K, 1623 kPa, Fluid (supercritical or subcritical phases)	0.02057
402.38 K, 1624 kPa, Fluid (supercritical or subcritical phases)	0.02063
402.38 K, 33572 kPa, Liquid	0.0761
402.41 K, 3571 kPa, Liquid	0.05649
402.41 K, 3575 kPa, Liquid	0.05649
402.42 K, 1105 kPa, Fluid (supercritical or subcritical phases)	0.01939
402.43 K, 1105 kPa, Fluid (supercritical or subcritical phases)	0.01943
402.43 K, 7089 kPa, Liquid	0.05988
402.44 K, 2633 kPa, Liquid	0.05536
402.44 K, 2641 kPa, Liquid	0.05542
402.44 K, 7097 kPa, Liquid	0.05991
402.44 K, 15789 kPa, Liquid	0.06632
402.44 K, 15790 kPa, Liquid	0.06635
402.44 K, 24987 kPa, Liquid	0.07171
402.44 K, 24992 kPa, Liquid	0.07169
402.46 K, 1000 kPa, Fluid (supercritical or subcritical phases)	0.01927
402.47 K, 1001 kPa, Fluid (supercritical or subcritical phases)	0.01932
402.47 K, 1515 kPa, Fluid (supercritical or subcritical phases)	0.02021
402.47 K, 1844 kPa, Liquid	0.0544
402.47 K, 1854 kPa, Liquid	0.05447
402.48 K, 1515 kPa, Fluid (supercritical or subcritical phases)	0.02026
402.5 K, 848 kPa, Fluid (supercritical or subcritical phases)	0.01923
402.5 K, 13367 kPa, Liquid	0.06472
402.5 K, 13371 kPa, Liquid	0.0647
402.51 K, 846 kPa, Fluid (supercritical or subcritical phases)	0.01926
402.52 K, 1406 kPa, Fluid (supercritical or subcritical phases)	0.01993
402.52 K, 1407 kPa, Fluid (supercritical or subcritical phases)	0.01994
402.53 K, 21658 kPa, Liquid	0.06987
402.54 K, 21643 kPa, Liquid	0.06986
402.56 K, 28722 kPa, Liquid	0.07362
402.57 K, 5983 kPa, Liquid	0.05888
402.57 K, 5985 kPa, Liquid	0.05888
402.57 K, 11101 kPa, Liquid	0.06313
402.57 K, 28741 kPa, Liquid	0.07367
402.58 K, 1306 kPa, Fluid (supercritical or subcritical phases)	0.01976
402.58 K, 1307 kPa, Fluid (supercritical or subcritical phases)	0.01973
402.58 K, 11088 kPa, Liquid	0.06313
402.6 K, 18623 kPa, Liquid	0.06809
402.61 K, 676 kPa, Fluid (supercritical or subcritical phases)	0.01925
402.61 K, 4688 kPa, Liquid	0.05758
402.61 K, 18624 kPa, Liquid	0.06809
402.61 K, 33585 kPa, Liquid	0.07607
402.62 K, 4693 kPa, Liquid	0.05763
402.62 K, 33568 kPa, Liquid	0.07592
402.63 K, 1203 kPa, Fluid (supercritical or subcritical phases)	0.01956
402.63 K, 9088 kPa, Liquid	0.06152
402.63 K, 9104 kPa, Liquid	0.06148
402.65 K, 1203 kPa, Fluid (supercritical or subcritical phases)	0.01959
402.66 K, 3574 kPa, Liquid	0.05645
402.66 K, 3575 kPa, Liquid	0.05645
402.69 K, 1104 kPa, Fluid (supercritical or subcritical phases)	0.01945
402.69 K, 1106 kPa, Fluid (supercritical or subcritical phases)	0.01948
402.69 K, 7089 kPa, Liquid	0.05985
402.69 K, 15783 kPa, Liquid	0.06633
402.69 K, 15792 kPa, Liquid	0.06633
402.69 K, 24993 kPa, Liquid	0.07169
402.7 K, 2638 kPa, Liquid	0.0554
402.7 K, 7091 kPa, Liquid	0.0599
402.7 K, 25001 kPa, Liquid	0.07172
402.71 K, 2639 kPa, Liquid	0.05542
402.74 K, 1850 kPa, Liquid	0.05446
402.75 K, 1000 kPa, Fluid (supercritical or subcritical phases)	0.01939
402.75 K, 1852 kPa, Liquid	0.05457
402.76 K, 13350 kPa, Liquid	0.06467
402.76 K, 13371 kPa, Liquid	0.06472
402.78 K, 848 kPa, Fluid (supercritical or subcritical phases)	0.01932
402.79 K, 846 kPa, Fluid (supercritical or subcritical phases)	0.01931
402.79 K, 21633 kPa, Liquid	0.06986
402.8 K, 21636 kPa, Liquid	0.06986
402.82 K, 28727 kPa, Liquid	0.07362
402.84 K, 5979 kPa, Liquid	0.05886
402.84 K, 5987 kPa, Liquid	0.05889
402.84 K, 11088 kPa, Liquid	0.0631
402.84 K, 28733 kPa, Liquid	0.07365
402.85 K, 11093 kPa, Liquid	0.06312
402.86 K, 18624 kPa, Liquid	0.06805
402.87 K, 18643 kPa, Liquid	0.06812
402.89 K, 4691 kPa, Liquid	0.05763
402.89 K, 4699 kPa, Liquid	0.05767
402.9 K, 9108 kPa, Liquid	0.06161
402.9 K, 33571 kPa, Liquid	0.07603
402.91 K, 674 kPa, Fluid (supercritical or subcritical phases)	0.01931
402.91 K, 9096 kPa, Liquid	0.0616
402.91 K, 33586 kPa, Liquid	0.07604
402.93 K, 3567 kPa, Liquid	0.05645
402.94 K, 3574 kPa, Liquid	0.05661
402.96 K, 15767 kPa, Liquid	0.06628
402.96 K, 24990 kPa, Liquid	0.07167
402.96 K, 25002 kPa, Liquid	0.07171
402.97 K, 7096 kPa, Liquid	0.05991
402.97 K, 15769 kPa, Liquid	0.0663
402.98 K, 2633 kPa, Liquid	0.05541
402.98 K, 7087 kPa, Liquid	0.05989
402.99 K, 2643 kPa, Liquid	0.05551
403 K, 1856 kPa, Liquid	0.0546
403.01 K, 1850 kPa, Liquid	0.05458
403.03 K, 21637 kPa, Liquid	0.06984
403.04 K, 13347 kPa, Liquid	0.06471
403.04 K, 13368 kPa, Liquid	0.06474
403.07 K, 21655 kPa, Liquid	0.06986
403.09 K, 28719 kPa, Liquid	0.0736
403.1 K, 28719 kPa, Liquid	0.07336
403.11 K, 5980 kPa, Liquid	0.05886
403.12 K, 5983 kPa, Liquid	0.05891
403.12 K, 11089 kPa, Liquid	0.06307
403.12 K, 11091 kPa, Liquid	0.06308
403.14 K, 18630 kPa, Liquid	0.06809
403.15 K, 18626 kPa, Liquid	0.06808
403.17 K, 4697 kPa, Liquid	0.05766
403.18 K, 4698 kPa, Liquid	0.05772
403.18 K, 9094 kPa, Liquid	0.06153
403.19 K, 9095 kPa, Liquid	0.06162
403.19 K, 33557 kPa, Liquid	0.076
403.2 K, 33576 kPa, Liquid	0.07601
403.23 K, 3569 kPa, Liquid	0.0565
403.24 K, 3565 kPa, Liquid	0.05654
403.24 K, 15779 kPa, Liquid	0.06628
403.24 K, 25000 kPa, Liquid	0.07167
403.25 K, 15789 kPa, Liquid	0.06631
403.25 K, 24985 kPa, Liquid	0.07165
403.27 K, 2641 kPa, Liquid	0.05557
403.27 K, 7090 kPa, Liquid	0.05988
403.27 K, 7094 kPa, Liquid	0.05994
403.28 K, 2638 kPa, Liquid	0.05558
403.3 K, 1852 kPa, Liquid	0.05468
403.31 K, 1856 kPa, Liquid	0.05476
403.32 K, 13355 kPa, Liquid	0.06468
403.33 K, 13350 kPa, Liquid	0.06467
403.33 K, 21631 kPa, Liquid	0.0698
403.33 K, 21643 kPa, Liquid	0.06984
403.37 K, 28710 kPa, Liquid	0.07356
403.37 K, 28735 kPa, Liquid	0.0736
403.39 K, 11081 kPa, Liquid	0.06304
403.4 K, 5980 kPa, Liquid	0.05891
403.4 K, 11095 kPa, Liquid	0.06309
